Test results as given in PMC8460406, “PET/CT imaging of head-and-neck and pancreatic cancer in humans by targeting the “Cancer Integrin” αvβ6 with Ga-68-Trivehexin” (European Journal of Nuclear Medicine and Molecular Imaging, 2021).
pIC50: −log10 of the molar value. Read-outs that look alike come from different tables or passages of the source. Blank lines part the entries; values can stand above or below the molecule they belong to.

Columns and labels:
αvβ3-integrin = αvβ3-integrin (Homo sapiens, UniProt P05106+P06756); assay: ELISA on immobilized integrins (integrin affinity), αvβ3; type: binding; conditions: for pIC50: 95% confidence interval in parentheses; for αvβ6-selectivity over αvβ3: IC50-based factor
Chain of αvβ3-integrin (P06756 31-1048): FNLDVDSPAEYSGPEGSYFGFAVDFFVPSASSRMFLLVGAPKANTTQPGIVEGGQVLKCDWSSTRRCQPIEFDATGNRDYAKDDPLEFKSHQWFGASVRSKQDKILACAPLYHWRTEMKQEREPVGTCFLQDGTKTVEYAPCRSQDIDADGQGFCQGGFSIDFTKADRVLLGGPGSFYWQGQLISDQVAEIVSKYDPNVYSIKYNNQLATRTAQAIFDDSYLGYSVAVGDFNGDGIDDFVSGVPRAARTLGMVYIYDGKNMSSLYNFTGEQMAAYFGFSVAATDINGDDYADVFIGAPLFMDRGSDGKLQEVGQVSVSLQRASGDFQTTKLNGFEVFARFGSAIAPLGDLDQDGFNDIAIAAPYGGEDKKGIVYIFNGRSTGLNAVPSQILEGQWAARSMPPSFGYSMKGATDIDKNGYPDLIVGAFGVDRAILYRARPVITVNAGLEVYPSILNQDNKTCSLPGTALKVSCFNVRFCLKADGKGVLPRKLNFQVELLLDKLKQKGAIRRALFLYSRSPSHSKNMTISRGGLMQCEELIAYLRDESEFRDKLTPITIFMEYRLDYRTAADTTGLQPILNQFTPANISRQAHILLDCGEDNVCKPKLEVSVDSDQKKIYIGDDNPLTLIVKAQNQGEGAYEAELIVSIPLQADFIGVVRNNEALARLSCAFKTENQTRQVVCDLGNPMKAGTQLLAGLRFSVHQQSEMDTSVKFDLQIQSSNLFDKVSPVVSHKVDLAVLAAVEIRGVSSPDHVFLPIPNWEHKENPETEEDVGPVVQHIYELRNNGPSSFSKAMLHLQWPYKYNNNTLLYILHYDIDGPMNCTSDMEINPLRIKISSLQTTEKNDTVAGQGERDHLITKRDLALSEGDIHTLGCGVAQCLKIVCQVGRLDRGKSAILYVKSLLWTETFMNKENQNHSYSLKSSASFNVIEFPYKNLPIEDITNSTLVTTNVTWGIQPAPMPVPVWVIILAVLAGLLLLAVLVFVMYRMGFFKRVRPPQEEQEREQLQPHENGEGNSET
Chain of αvβ3-integrin (P05106 27-788): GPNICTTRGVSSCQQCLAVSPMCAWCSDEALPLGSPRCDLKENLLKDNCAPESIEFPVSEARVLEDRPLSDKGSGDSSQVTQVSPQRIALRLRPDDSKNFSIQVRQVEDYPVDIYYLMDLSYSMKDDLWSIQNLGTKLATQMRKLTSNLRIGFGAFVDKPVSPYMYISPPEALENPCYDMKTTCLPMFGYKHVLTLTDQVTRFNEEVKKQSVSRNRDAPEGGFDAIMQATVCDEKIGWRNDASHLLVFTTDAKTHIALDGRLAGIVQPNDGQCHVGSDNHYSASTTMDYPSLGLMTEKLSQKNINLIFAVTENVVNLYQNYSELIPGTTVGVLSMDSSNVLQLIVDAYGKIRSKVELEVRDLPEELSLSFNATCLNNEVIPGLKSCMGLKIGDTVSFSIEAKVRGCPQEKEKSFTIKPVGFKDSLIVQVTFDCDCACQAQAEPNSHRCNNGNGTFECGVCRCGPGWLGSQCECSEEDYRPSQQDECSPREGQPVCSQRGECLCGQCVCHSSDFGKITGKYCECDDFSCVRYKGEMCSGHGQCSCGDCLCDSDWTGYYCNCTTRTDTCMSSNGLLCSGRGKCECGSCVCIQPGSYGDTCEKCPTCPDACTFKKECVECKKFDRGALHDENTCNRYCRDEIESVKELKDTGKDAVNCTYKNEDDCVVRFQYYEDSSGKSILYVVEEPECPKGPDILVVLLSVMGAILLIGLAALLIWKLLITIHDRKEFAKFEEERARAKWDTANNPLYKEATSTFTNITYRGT
Source text: (§1) Materials, reagents, general procedures, and instrumentation used for chemical syntheses and analyses have been detailed elsewhere. In addition to what has been reported before, the building block TRAP(azide)3 was purchased from Fosfinos s.r.o. (Kladno, CZ). c[FGDLAFp(NMe)K(pentynoic amide)] and TRAP(AvB6)3 were synthesized according to the literature. Previously described protocols were followed for determination of integrin affinities by ELISA on immobilized integrins and for β6-integrin immunohistochemistry (IHC).

αvβ6-integrin [1] = target: T1, αvβ6-integrin (Homo sapiens, UniProt P06756+P18564); assay: ELISA on immobilized integrins (integrin affinity), αvβ6; type: binding; conditions: 95% confidence interval in parentheses
T1 sequence (P06756 31-992 limits assumed): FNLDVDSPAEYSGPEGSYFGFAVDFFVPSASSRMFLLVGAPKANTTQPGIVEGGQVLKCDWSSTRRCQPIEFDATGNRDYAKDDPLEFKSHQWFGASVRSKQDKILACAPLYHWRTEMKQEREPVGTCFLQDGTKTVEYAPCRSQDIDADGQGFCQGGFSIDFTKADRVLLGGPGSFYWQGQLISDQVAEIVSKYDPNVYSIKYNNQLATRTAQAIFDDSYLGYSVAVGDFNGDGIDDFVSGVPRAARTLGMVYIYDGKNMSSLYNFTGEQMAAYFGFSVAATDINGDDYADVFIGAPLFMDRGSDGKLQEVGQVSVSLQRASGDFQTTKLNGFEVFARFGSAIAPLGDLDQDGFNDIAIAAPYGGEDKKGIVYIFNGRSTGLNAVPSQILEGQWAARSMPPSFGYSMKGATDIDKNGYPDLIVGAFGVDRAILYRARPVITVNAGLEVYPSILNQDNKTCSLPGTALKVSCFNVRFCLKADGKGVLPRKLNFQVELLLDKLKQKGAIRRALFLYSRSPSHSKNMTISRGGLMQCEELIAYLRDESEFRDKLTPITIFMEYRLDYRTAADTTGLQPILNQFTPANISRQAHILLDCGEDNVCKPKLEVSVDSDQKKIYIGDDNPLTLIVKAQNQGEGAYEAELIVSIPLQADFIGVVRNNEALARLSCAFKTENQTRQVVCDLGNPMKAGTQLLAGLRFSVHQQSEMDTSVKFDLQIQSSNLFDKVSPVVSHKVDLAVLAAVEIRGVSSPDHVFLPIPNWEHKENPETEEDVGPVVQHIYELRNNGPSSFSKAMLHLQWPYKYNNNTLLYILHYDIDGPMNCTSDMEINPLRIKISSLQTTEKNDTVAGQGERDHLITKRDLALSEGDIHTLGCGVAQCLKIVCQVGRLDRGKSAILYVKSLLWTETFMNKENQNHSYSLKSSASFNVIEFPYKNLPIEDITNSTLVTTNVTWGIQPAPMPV
T1 sequence (P18564 22-707 limits assumed): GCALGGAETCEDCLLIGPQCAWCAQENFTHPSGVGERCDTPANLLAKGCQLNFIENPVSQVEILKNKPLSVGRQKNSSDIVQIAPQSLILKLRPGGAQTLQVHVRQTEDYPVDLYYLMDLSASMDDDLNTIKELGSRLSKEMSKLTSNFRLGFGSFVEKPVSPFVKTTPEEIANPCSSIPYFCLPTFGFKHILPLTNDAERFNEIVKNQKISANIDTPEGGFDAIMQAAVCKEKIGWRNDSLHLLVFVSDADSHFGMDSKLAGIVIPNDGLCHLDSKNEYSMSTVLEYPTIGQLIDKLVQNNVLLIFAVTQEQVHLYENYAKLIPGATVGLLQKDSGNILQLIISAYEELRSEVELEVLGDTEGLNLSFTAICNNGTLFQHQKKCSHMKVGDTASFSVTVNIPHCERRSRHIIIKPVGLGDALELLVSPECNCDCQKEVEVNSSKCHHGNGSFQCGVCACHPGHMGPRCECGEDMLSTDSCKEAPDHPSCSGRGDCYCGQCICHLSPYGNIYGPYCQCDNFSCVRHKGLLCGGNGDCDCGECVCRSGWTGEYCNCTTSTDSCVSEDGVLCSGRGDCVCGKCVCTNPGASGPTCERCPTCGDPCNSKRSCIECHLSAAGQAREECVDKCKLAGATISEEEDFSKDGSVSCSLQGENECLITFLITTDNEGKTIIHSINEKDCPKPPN
Source text: as §1

α5β1-integrin = α5β1-integrin (Homo sapiens, UniProt P05556+P08648); assay: ELISA on immobilized integrins (integrin affinity), α5β1; type: binding; conditions: for αvβ6-selectivity over α5β1: IC50-based factor
Chain of α5β1-integrin (P08648 42-995 limits assumed): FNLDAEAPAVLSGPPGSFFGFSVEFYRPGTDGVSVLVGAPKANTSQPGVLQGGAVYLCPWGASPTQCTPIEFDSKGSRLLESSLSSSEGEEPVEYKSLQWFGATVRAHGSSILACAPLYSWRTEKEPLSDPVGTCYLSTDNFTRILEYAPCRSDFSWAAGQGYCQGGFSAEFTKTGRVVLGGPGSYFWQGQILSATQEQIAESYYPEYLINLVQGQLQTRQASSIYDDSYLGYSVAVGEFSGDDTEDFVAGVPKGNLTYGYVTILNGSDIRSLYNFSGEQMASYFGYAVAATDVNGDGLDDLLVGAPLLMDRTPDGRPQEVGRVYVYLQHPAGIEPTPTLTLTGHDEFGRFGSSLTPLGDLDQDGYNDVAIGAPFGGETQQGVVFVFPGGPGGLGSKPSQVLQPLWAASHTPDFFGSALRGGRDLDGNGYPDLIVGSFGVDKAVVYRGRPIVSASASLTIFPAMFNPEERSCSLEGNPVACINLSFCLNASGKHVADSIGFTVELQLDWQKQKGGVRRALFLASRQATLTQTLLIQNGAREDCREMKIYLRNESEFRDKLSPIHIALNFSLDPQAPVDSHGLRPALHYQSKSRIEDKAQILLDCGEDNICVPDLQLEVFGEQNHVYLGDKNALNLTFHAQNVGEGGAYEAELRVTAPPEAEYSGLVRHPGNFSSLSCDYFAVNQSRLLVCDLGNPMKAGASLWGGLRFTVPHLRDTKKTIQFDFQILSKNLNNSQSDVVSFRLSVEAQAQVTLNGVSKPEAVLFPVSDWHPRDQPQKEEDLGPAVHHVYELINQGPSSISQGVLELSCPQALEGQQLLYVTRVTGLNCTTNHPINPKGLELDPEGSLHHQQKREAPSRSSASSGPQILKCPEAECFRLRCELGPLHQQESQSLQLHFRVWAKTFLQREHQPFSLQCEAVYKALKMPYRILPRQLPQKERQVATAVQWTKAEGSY
Chain of α5β1-integrin (P05556 21-728 limits assumed): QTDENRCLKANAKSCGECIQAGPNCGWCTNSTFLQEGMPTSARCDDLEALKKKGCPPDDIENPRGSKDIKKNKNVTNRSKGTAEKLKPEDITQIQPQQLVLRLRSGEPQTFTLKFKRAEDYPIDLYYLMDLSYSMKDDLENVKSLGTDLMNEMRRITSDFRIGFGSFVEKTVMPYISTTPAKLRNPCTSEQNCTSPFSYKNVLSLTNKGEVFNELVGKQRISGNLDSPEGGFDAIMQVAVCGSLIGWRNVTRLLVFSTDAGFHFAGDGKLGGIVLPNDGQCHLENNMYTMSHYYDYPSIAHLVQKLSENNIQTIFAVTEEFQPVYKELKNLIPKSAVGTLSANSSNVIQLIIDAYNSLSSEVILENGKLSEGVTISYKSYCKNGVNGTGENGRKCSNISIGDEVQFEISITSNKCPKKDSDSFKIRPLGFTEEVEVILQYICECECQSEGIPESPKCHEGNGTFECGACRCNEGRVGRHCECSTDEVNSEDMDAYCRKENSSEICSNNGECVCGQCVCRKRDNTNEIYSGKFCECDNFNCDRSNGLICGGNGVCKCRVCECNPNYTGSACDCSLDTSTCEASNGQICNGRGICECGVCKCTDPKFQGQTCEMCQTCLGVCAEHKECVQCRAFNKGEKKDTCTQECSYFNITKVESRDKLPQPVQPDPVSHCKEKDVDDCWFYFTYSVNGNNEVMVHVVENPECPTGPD
Source text: as §1

αvβ8-integrin = αvβ8-integrin (Homo sapiens, UniProt P06756+P26012); assay: ELISA on immobilized integrins (integrin affinity), αvβ8; type: binding; conditions: for pIC50: 95% confidence interval in parentheses; for αvβ6-selectivity over αvβ8: IC50-based factor
Source text: as §1

[2] = tested on: αvβ6-integrin expressing carcinomas; assay: PET/CT imaging of carcinomas in human (HNSCC, parotideal adenocarcinoma, PDAC); type: in vivo
Experimental: All human participants provided written informed consent, also for publication of images, prior to the investigation. […] No significant changes in vital signs or the results of laboratory studies or electrocardiograms were observed. Data for a total of 4 human subjects were included in this report. The PET/CT for patient #1 was performed according to a previously published protocol, as was calculation of the dosimetric parameters.
A panendoscopy and tracheostomy were carried out 4 weeks prior to the [^18F]FDG. The tumor was not suitable for surgical removal and a simultaneous radiochemotherapy was indicated.
Patient #3 (Fig. 4C–E) was diagnosed with an adenocarcinoma (salivary duct carcinoma) in the right […] in 2019 and initially underwent total parotidectomy and unilateral neck dissection (pT2 pN1b [21/23] L1 V1 Pn1 R1). A post-resection and contralateral neck-dissection was performed 1 month later, followed by adjuvant radiation. In 2020 the patient developed prelaryngeal and lateral orbita angle metastases, which were resected and adjuvantly irradiated. […] Since no further tumor manifestations were present in both examinations, surgical resection was indicated and performed. β6-integrin IHC [21] was done for specimen of the excised metastasis.
Patient #4 was diagnosed with a carcinoma of the pancreatic head by endosonography and CT morphology. Pancreatic adenocarcinoma was verified by biopsy. […] According to this finding, surgical treatment was rejected and a chemotherapy regimen was started.

in vivo = conditions: SCID, mouse, total radioactivity
Source text: All animal experiments were approved by the responsible authority (Regierung von Oberbayern) and have been performed in accordance with general animal welfare regulations in Germany and the institutional guidelines for the care and use of animals. Keeping of the animals, generation of subcutaneous H2009 and MDA-MB-231 tumor xenografts, ex-vivo biodistribution studies, and µPET imaging were done according to previously described protocols. Multiplicity of PET and biodistribution studies ranged from 3 to 5; animal numbers for each individual experiment are denoted in the respective data tables in the Supporting Information and, additionally, in the Results section.

αvβ6-integrin [3] = target: T1, αvβ6-integrin; conditions: cited from earlier work
[4] = type: physicochemical; conditions: pH 7.4
Source text: Radiolabeling for preclinical experiments and determination of n-octanol–PBS distribution coefficients (log D7.4) was done as described. Applying this protocol, 5 nmol (0.5 nmol for cellular assays in order to maximize molar activity) of TRAP(AvB6)3 or Trivehexin were labeled with ^68 Ga at pH 2, resulting in RCY > 95%. The purity of the radiolabeled compounds was confirmed by radio-TLC, using silica impregnated glass fiber chromatography paper (ITLC® by Agilent) as stationary phase and 0.1 M aq. sodium citrate as mobile phase (purities were > 99%).

[5] = ref [34], read-out: IC50 (αvβ6-integrin affinity)

- pIC50 (αvβ3-integrin): 6.66
- αvβ6-selectivity over αvβ3 (αvβ3-integrin): 261
- pIC50 (αvβ6-integrin [1]): 9.08
- pIC50 (α5β1-integrin; 95% confidence interval in parentheses): 6.82
- αvβ6-selectivity over α5β1 (α5β1-integrin): 179
- pIC50 (αvβ8-integrin): 7.59
- αvβ6-selectivity over αvβ8 (αvβ8-integrin): 31
Molecule: C#CCCC(=O)NCCCC[C@H]1C(=O)N[C@@H](Cc2ccc(O)cc2)C(=O)N[C@@H](CCCNC(=N)N)C(=O)NCC(=O)N[C@@H](CC(=O)O)C(=O)N[C@@H](CC(C)C)C(=O)N[C@@H](C)C(=O)N[C@@H](Cc2ccc(O)cc2)C(=O)N2CCC[C@@H]2C(=O)N1C [Tyr2-alkyne, c[YRGDLAYp(NMe)K(pentynoic amide)]]

Molecule: OC[C@H]1OC(O)[C@H]([18F])[C@@H](O)[C@@H]1O (some centres unmarked) [[^18F]FDG]
- SUVmax around 7-week-old tracheostoma (inflammation) ([2]; patient #2, 61-62 min p.i.): 10.2
- SUVmax prelaryngeal cutaneous metastasis of parotideal adenocarcinoma ([2]; patient #3, 67-71 min p.i.): 6.1
- metabolic tumor volume ([2]; patient #3, prelaryngeal cutaneous metastasis): 2.2 cm^3

Molecule: CC(C)C[C@@H]1NC(=O)[C@H](CC(=O)O)NC(=O)CNC(=O)[C@H](CCCNC(=N)N)NC(=O)[C@H](Cc2ccccc2)NC(=O)[C@H](CCCCNC(=O)CCc2cn(CCCNC(=O)CCP(=O)(O)CN3CCN(CP(=O)(O)CCC(=O)NCCCn4cc(CCC(=O)NCCCC[C@H]5C(=O)N[C@@H](Cc6ccccc6)C(=O)N[C@@H](CCCNC(=N)N)C(=O)NCC(=O)N[C@@H](CC(=O)O)C(=O)N[C@@H](CC(C)C)C(=O)N[C@@H](C)C(=O)N[C@@H](Cc6ccccc6)C(=O)N6CCC[C@@H]6C(=O)N5C)nn4)CCN(CP(=O)(O)CCC(=O)NCCCn4cc(CCC(=O)NCCCC[C@H]5C(=O)N[C@@H](Cc6ccccc6)C(=O)N[C@@H](CCCNC(=N)N)C(=O)NCC(=O)N[C@@H](CC(=O)O)C(=O)N[C@@H](CC(C)C)C(=O)N[C@@H](C)C(=O)N[C@@H](Cc6ccccc6)C(=O)N6CCC[C@@H]6C(=O)N5C)nn4)CC3)nn2)N(C)C(=O)[C@H]2CCCN2C(=O)[C@H](Cc2ccccc2)NC(=O)[C@H](C)NC1=O [^68 Ga-TRAP(AvB6)3]
- tissue to tissue ratio at 1.5 h (in vivo; tumor/organ ratio Adrenals): 3.7
- tissue to tissue ratio at 1.5 h (in vivo; tumor/organ ratio Blood): 2.2
- tissue to tissue ratio at 1.5 h (in vivo; tumor/organ ratio Heart (myocard)): 4.2
- tissue to tissue ratio at 1.5 h (in vivo; tumor/organ ratio Kidneys): 0.1
- tissue to tissue ratio at 1.5 h (in vivo; tumor/organ ratio Large intestine (empty)): 1.6
- tissue to tissue ratio at 1.5 h (in vivo; tumor/organ ratio Liver): 1.2
- tissue to tissue ratio at 1.5 h (in vivo; tumor/organ ratio Lung): 0.6
- tissue to tissue ratio at 1.5 h (in vivo; tumor/organ ratio Muscle): 8.1
- tissue to tissue ratio at 1.5 h (in vivo; tumor/organ ratio Pancreas): 10.1
- tissue to tissue ratio at 1.5 h (in vivo; tumor/organ ratio Small intestine (empty)): 2.2
- tissue to tissue ratio at 1.5 h (in vivo; tumor/organ ratio Spleen): 1.7
- tissue to tissue ratio at 1.5 h (in vivo; tumor/organ ratio Stomach (empty)): 0.9
- pIC50 (αvβ6-integrin [3]; ref [17], read-out: αvβ6-integrin affinity): 10.64
- n-octanol-PBS distribution coefficient log D7.4 [4]: − 1.5 ± 0.1

- pIC50 (αvβ3-integrin): 6.37
- αvβ6-selectivity over αvβ3 (αvβ3-integrin): 2494
- pIC50 (αvβ6-integrin [1]): 9.77
- αvβ6-selectivity over α5β1 (α5β1-integrin): 1329
- pIC50 (αvβ8-integrin): 7.49
- αvβ6-selectivity over αvβ8 (αvβ8-integrin): 188
Molecule: C#CCCC(=O)NCCCC[C@H]1C(=O)N[C@@H](Cc2ccccc2)C(=O)N[C@@H](CCCNC(=N)N)C(=O)NCC(=O)N[C@@H](CC(=O)O)C(=O)N[C@@H](CC(C)C)C(=O)N[C@@H](C)C(=O)N[C@@H](Cc2ccccc2)C(=O)N2CCC[C@@H]2C(=O)N1C [c[FRGDLAFp(NMe)K(pentynoic amide)], reference compound]

Molecule: c[FRGDLAYp(NMe)K] (FRGDLAYPK; HELM PEPTIDE1{F.R.G.D.L.A.Y.[dP].[meK]}$PEPTIDE1,PEPTIDE1,1:R1-9:R2$$$V2.0; SMILES CC(C)C[C@@H]1NC(=O)[C@H](CC(=O)O)NC(=O)CNC(=O)[C@H](CCCNC(=N)N)NC(=O)[C@H](Cc2ccccc2)NC(=O)[C@H](CCCCN)N(C)C(=O)[C@H]2CCCN2C(=O)[C@H](Cc2ccc(O)cc2)NC(=O)[C@H](C)NC1=O)
- pIC50 (αvβ6-integrin [3]; [5]): 9.41

Molecule: c[YRGDLAFp(NMe)K] (YRGDLAFPK; HELM PEPTIDE1{Y.R.G.D.L.A.F.[dP].[meK]}$PEPTIDE1,PEPTIDE1,1:R1-9:R2$$$V2.0; SMILES CC(C)C[C@@H]1NC(=O)[C@H](CC(=O)O)NC(=O)CNC(=O)[C@H](CCCNC(=N)N)NC(=O)[C@H](Cc2ccc(O)cc2)NC(=O)[C@H](CCCCN)N(C)C(=O)[C@H]2CCCN2C(=O)[C@H](Cc2ccccc2)NC(=O)[C@H](C)NC1=O)
- pIC50 (αvβ6-integrin [3]; [5]): 9.40
